Tests used:
PI3Ka = PI3Ka (Homo sapiens (Human), UniProt P42336); test: Z'-LYTE / Adapta kinase assay, PI3Ka; format: biochemical; conditions: for inhibition at 0.1 µM: read-out: PI3Ka % Inh. @ 100 nM
From the text: (§1) The Z′-LYTE® biochemical assay employs a fluorescence-based, coupled-enzyme format and is based on the differential sensitivity of phosphorylated and non-phosphorylated peptides to proteolytic cleavage (FIG. 6). The peptide substrate is labeled with two fluorophores one at each end—that make up a FRET pair. In the primary reaction, the kinase transfers the gamma-phosphate of ATP to a single tyrosine, serine or threonine residue in a synthetic FRET-peptide. In the secondary reaction, a site-specific protease recognizes and cleaves non-phosphorylated FRET-peptides. Phosphorylation of FRET-peptides suppresses cleavage by the Development Reagent. Cleavage disrupts FRET between the donor (i.e., coumarin) and acceptor (i.e., fluorescein) fluorophores on the FRET-peptide, whereas uncleaved, phosphorylated FRET-peptides maintain FRET. A ratiometric method, which calculates the ratio (the Emission Ratio) of donor emission to acceptor emission after excitation of the donor fluorophore at 400 nm, is used to quantitate reaction progress.
(§2) A significant benefit of this ratiometric method for quantitating reaction progress is the elimination of well-to-well variations in FRET-peptide concentration and signal intensities. As a result, the assay yields very high Z′-factor values (>0.7) at a low percent phosphorylation.
(§3) Both cleaved and uncleaved FRET-peptides contribute to the fluorescence signals and therefore to the Emission Ratio. The extent of phosphorylation of the FRET-peptide can be calculated from the Emission Ratio.
(§4) Enzyme: The ADAPTA universal kinase assay is a homogenous, fluorescent based immunoassay for the detection of ADP. In contrast to ATP depletion assays, the ADAPTA assay is extremely sensitive to ADP formation such that a majority of the signal change occurs in the first 10-20% conversion of ATP to ADP. This makes the ADAPTA universal kinase assay ideally suited for use with low activity kinases.
(§5) The principle of the ADAPTA universal kinase assay is outlined below. The assay itself can be divided into two phases: a kinase reaction phase, and an ADP detection phase. In the kinase reaction phase, all components required for the kinase reaction are added to the well, and the reaction is allowed to incubate for 60 minutes.
(§6) Z′-LYTE® Assay Conditions:
(§7) Test Compounds: The Test Compounds are screened in 1% DMSO (final) in the well. For 10 point titrations, 3-fold serial dilutions are conducted from the starting concentration.
(§8) Peptide/Kinase Mixtures: All Peptide/Kinase Mixtures are diluted to a 2× working concentration in the appropriate Kinase Buffer.
(§9) ATP Solution: All ATP Solutions are diluted to a 4× working concentration in Kinase Buffer (50 mM HEPES pH 7.5, 0.01% BRIJ-35, 10 mM MgCl2, 1 mM EGTA). ATP Km apparent is previously determined using a Z′-LYTE® assay.
(§10) Development Reagent Solution: The Development Reagent is diluted in Development Buffer. […]
(§11) 2.5 μL—4× Test Compound or 100 nL 100× plus 2.4 μL kinase buffer. 2. 5 μL—2× Peptide/Kinase Mixture. 3. 2.5 μL—4× ATP Solution. 4. 30-second plate shake. 5. 60-minute Kinase Reaction incubation at room temperature. 6. 5 μL—Development Reagent Solution. 7. 30-second plate shake. 8. 60-minute Development Reaction incubation at room temperature. 9.

EGFR = EGFR (Homo sapiens (Human), UniProt P00533); test: Z'-LYTE / Adapta kinase assay, EGFR; format: biochemical; conditions: for inhibition at 0.1 µM: read-out: EGFR % Inh. @ 100 nM
Chain of EGFR (P00533 25-1210): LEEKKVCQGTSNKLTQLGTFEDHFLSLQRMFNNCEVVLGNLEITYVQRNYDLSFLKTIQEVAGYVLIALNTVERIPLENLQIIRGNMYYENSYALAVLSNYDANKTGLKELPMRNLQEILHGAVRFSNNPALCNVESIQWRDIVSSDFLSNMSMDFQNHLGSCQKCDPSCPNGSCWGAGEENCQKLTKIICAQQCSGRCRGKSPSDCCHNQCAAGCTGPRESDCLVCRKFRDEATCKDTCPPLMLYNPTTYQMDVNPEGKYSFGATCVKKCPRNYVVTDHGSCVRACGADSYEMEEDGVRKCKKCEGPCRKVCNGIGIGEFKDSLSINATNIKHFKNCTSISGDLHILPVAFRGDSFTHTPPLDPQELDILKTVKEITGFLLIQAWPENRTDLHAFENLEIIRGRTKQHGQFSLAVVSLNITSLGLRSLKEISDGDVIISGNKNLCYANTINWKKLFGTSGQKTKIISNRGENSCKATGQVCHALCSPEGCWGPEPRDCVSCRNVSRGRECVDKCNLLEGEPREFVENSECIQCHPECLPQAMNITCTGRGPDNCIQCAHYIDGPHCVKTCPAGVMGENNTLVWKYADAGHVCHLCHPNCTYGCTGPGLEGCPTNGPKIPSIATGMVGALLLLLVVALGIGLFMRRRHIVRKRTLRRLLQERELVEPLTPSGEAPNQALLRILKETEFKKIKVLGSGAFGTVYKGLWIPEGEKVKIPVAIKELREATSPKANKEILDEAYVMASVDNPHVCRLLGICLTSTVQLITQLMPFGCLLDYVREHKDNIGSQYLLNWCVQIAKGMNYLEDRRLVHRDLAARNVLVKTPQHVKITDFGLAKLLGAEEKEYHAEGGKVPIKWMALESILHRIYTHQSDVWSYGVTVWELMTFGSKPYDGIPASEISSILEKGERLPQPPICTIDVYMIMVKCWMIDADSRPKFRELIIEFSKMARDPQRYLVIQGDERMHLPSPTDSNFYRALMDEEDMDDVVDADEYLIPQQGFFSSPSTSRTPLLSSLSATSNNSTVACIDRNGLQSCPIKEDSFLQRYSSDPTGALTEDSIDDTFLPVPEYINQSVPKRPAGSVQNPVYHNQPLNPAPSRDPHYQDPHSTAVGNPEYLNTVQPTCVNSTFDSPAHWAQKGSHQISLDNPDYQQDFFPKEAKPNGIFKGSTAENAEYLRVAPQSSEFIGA
From the text: as §1, §2, §3, §4, §5, §6, §7, §8, §9, §10, §11

[1] = Metabolic stability in mouse liver microsomes; format: in vitro ADME
Method: (§12) Working solution: 5 μL of compound and control stock solution (10 mM in dimethyl sulfoxide (DMSO)) were diluted with 495 μL of acetonitrile (ACN) (intermediate solution concentration: 100 μM, 99% ACN)
(§13) NADPH Cofactor Preparation: NADPH powder: β-Nicotinamide adenine dinucleotide phosphate reduced form, tetrasodium salt; NADPH·4Na. The appropriate amount of NADPH powder was weighed and diluted into a 10 mM MgCl2 solution (working solution concentration: 10 unit/mL; final concentration in reaction system: 1 unit/mL)
(§14) Liver Microsomes Preparation: The appropriate concentrations of microsome working solutions were prepared in 100 mM potassium phosphate buffer. Cold (4° C.) acetonitrile (ACN) containing 200 ng/mL tolbutamide and 200 ng/mL labetalol as internal standards (1S) was used as the stop solution
(§15) Assay Procedure: Pre-warm empty ‘Incubation’ plates T60 and NCF60 for 10 minutes. Dilute liver microsomes to 0.56 mg/mL in 100 mM phosphate buffer. Transfer 445 μL microsome working solutions (0.56 mg/mL) into pre-warmed ‘Incubation’ plates T60 and NCF60, Then pre-incubate ‘Incubation’ plates T60 and NCF60 for 10 min at 37° C. with constant shaking. Transfer 54 μL liver microsomes to blank plate, then add 6 μL NAPDH cofactor to blank plate, and then add 180 μL quenching solution to blank plate. Add 5 μL compound working solution (100 μM) into ‘incubation’ plates (T60 and NCF60) containing microsomes and mix 3 times thoroughly.
(§16) For the NCF60 plate, add 50 μL of buffer and mix 3 times thoroughly. Start timing; plate will be incubated at 37° C. for 60 min while shaking. In ‘Quenching’ plate T0, add 180 μL quenching solution and 6 μL NAPDH cofactor. Ensure the plate is chilled to prevent evaporation. For the T60 plate, mix 3 times thoroughly, and immediately remove 54 μL mixture for the 0-min time point to ‘Quenching’ plate. Then add 44 μL NAPDH cofactor to incubation plate (T60). Start timing; plate will be incubated at 37° C. for 60 min while shaking. At 5, 10, 20, 30, and 60 min, add 180 μL quenching solution to ‘Quenching’ plates, mix once, and serially transfer 60 μL sample from T60 plate per time point to ‘Quenching’ plates. For NCF60: mix once, and transfer 60 μL sample from the NCF60 incubation to ‘Quenching’ plate containing quenching solution at the 60-min time point. All sampling plates are shaken for 10 min, then centrifuged at 4000 rpm for 20 minutes at 4° C. Transfer 80 μL supernatant into 240 μL HPLC water, and mix by plate shaker for 10 min. Each bioanalysis plate was sealed and shaken for 10 minutes prior to LC-MS/MS analysis.
(§17) The equation of first order kinetics was used to calculate T½ and CLint(mic) (μL/min/mg). Equation of first order kinetics: […]
(§18) The biological stability of the compounds of the disclosure can be measured by determining its ½ life in the presence microsomes. Presented in Table 5, is the ½ life of selected compounds of the disclosure in the presence of human liver microsomes (HLM) or mouse liver microsomes (MLM) as described above. In Table 5, ½ life is presented as “++++” (value is greater than 60 minutes), “+++” (value is greater than 30 minutes and less than or equal to 60 minutes), “++” (value is greater than 15 minutes and less than or equal to 30 minutes) and “+” (value is 15 minutes or less).

[2] = Metabolic stability in human liver microsomes; format: in vitro ADME
Method: as §12, §13, §14, §15, §16, §17, §18

DNA-PK = DNA-PK (Homo sapiens (Human), UniProt P78527); test: Z'-LYTE / Adapta kinase assay, DNA-PK; format: biochemical; conditions: for inhibition at 0.1 µM: read-out: DNA-PK % Inh. @ 100 nM
From the text: as §1, §2, §3, §4, §5, §6, §7, §8, §9, §10, §11

Chain of PI3Ka (P42336 whole entry): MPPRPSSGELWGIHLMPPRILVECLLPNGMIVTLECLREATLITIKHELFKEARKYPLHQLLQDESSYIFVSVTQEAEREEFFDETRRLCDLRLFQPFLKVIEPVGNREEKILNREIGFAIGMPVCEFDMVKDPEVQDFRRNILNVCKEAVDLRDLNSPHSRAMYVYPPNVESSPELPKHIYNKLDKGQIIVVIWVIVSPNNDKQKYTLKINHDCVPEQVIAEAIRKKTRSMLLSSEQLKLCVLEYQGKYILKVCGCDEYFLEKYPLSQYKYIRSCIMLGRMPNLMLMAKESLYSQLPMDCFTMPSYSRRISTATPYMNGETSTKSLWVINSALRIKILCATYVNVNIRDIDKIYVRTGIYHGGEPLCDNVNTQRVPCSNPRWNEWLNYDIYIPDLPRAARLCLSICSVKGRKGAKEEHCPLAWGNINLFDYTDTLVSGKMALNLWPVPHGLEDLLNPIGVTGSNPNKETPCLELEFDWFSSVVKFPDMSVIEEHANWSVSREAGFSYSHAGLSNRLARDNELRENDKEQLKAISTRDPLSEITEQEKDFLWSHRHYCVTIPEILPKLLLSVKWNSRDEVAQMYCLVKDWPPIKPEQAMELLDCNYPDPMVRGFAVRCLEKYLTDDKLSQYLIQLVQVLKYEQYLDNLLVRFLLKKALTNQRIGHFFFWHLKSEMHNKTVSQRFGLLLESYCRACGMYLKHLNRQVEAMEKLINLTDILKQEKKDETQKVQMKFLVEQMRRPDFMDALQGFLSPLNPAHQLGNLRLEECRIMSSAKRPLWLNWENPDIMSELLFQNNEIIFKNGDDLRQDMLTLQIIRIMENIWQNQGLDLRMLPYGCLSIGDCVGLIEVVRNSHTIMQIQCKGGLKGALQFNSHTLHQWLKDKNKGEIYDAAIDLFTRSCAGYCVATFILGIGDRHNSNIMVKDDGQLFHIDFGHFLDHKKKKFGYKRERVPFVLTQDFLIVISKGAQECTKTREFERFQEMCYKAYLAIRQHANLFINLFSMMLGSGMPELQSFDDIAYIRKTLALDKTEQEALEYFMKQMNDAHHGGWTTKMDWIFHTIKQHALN
Chain of PI3Ka (P27986 whole entry partner): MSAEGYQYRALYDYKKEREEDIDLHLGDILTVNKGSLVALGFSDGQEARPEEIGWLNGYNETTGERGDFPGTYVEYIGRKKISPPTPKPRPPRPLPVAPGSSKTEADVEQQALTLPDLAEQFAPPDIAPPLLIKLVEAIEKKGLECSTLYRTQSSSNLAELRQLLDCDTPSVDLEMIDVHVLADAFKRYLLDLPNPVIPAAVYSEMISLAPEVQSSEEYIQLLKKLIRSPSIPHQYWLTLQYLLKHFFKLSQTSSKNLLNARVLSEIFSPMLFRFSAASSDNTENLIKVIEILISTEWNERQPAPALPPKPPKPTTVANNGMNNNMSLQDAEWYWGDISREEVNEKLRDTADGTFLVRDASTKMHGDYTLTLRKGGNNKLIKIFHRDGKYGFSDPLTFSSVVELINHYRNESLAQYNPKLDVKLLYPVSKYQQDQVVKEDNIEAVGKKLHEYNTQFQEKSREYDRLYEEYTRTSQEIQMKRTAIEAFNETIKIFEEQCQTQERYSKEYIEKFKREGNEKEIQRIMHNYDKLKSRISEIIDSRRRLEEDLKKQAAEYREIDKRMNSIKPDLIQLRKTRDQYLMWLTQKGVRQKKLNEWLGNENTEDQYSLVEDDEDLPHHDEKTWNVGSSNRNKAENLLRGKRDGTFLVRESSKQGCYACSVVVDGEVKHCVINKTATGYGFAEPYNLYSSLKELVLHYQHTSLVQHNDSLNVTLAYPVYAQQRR

inhibition at 0.1 µM (PI3Ka) [%]	IC50 (EGFR) [nM]	inhibition at 0.1 µM (EGFR) [%]	½ life minutes (MLM) [1]	inhibition at 0.1 µM (DNA-PK) [%]	PI3Ka IC50 (nM) (PI3Ka)	IC50 (DNA-PK) [nM]	Compound	½ life minutes (HLM) [2]	IC50 (PI3Ka) [nM]
> 90	2 to 20	> 90	++++ (value is greater than 60 minutes)	> 90	–	–	C[C@@H](Nc1c(C#N)cnc2ccc(-c3cnc(Cl)c(NS(C)(=O)=O)c3)cc12)c1ccccc1 [Compound 48R, N-(2-chloro-5-(3-cyano-4-((1R-phenylethyl)amino)quinolin-6-yl)pyridin-3-yl)methanesulfonamide]	+++ (value is greater than 30 minutes and less than or equal to 60 minutes)	–
> 90	> 200	< 10	++++ (value is greater than 60 minutes)	> 90	++++ (value is 2 nM or less)	< 2	C[C@H](Nc1c(C#N)cnc2ccc(-c3cnc(Cl)c(NS(C)(=O)=O)c3)cc12)c1ccccc1 [Compound 48S, N-(2-chloro-5-(3-cyano-4-((1S-phenylethyl)amino)quinolin-6-yl)pyridin-3-yl)methanesulfonamide]	++++ (value is greater than 60 minutes)	–
> 90	> 200	< 10	++++ (value is greater than 60 minutes)	> 90	++++ (value is 2 nM or less)	< 2	C[C@H](Nc1ncnc2ccc(-c3cnc(Cl)c(NS(C)(=O)=O)c3)cc12)c1ccc(F)cc1 [Compound 111S, N-[2-chloro-5-[4-[[(1S)-1-(4-fluorophenyl)ethyl]amino]quinazolin-6-yl]-3-pyridyl]methanesulfonamide]	++++ (value is greater than 60 minutes)	–
10 to 80	2 to 20	80 to 90	++++ (value is greater than 60 minutes)	10 to 80	+ (value is greater than 200 nM)	> 200	CC(Nc1ncnc2ccc(-c3cnc(N)nc3)cc12)c1ccc(F)cc1 (stereo not drawn) [Compound 121, 6-(2-aminopyrimidin-5-yl)-N-(1-(4-fluorophenyl)ethyl)quinazolin-4-amine]	++++ (value is greater than 60 minutes)	–
> 90	–	80 to 90	++++ (value is greater than 60 minutes)	> 90	–	–	CC(Nc1c(C#N)cnc2ccc(-c3cnc(Cl)c(NS(C)(=O)=O)c3)cc12)c1ccccc1 (stereo not drawn) [Compound 48, N-[2-chloro-5-[3-cyano-4-(1-phenylethylamino)-6-quinolyl]-3-pyridyl]methanesulfonamide]	++++ (value is greater than 60 minutes)	–

Compound	inhibition at 0.1 µM (PI3Ka) [%]	IC50 (EGFR) [nM]	inhibition at 0.1 µM (EGFR) [%]	½ life minutes (MLM) [1]	inhibition at 0.1 µM (DNA-PK) [%]	PI3Ka IC50 (nM) (PI3Ka)	IC50 (DNA-PK) [nM]	½ life minutes (HLM) [2]	IC50 (PI3Ka) [nM]
C[C@@H](Nc1c(C#N)cnc2ccc(-c3cnc(Cl)c(NS(C)(=O)=O)c3)cc12)c1ccc(F)cc1 [Compound 97R, N-[2-chloro-5-[3-cyano-4-[[(1R)-1-(4-fluorophenyl)ethyl]amino]-6-quinolyl]-3-pyridyl]methanesulfonamide]	–	–	10 to 80	++++ (value is greater than 60 minutes)	> 90	–	–	++++ (value is greater than 60 minutes)	–
C[C@H](Nc1c(C#N)cnc2ccc(-c3cnc(Cl)c(NS(C)(=O)=O)c3)cc12)c1ccc(F)cc1 [Compound 97S, N-(2-chloro-5-(3-cyano-4-((1S-(4-fluorophenyl)ethyl)amino)quinolin-6-yl)pyridin-3-yl)methanesulfonamide]	> 90	> 200	< 10	++++ (value is greater than 60 minutes)	> 90	–	< 2	++++ (value is greater than 60 minutes)	< 2
CS(=O)(=O)Nc1cc(-c2ccc3ncc(C#N)c(NC4(c5ccccc5)CC4)c3c2)cnc1Cl [Compound 106, N-[2-chloro-5-[3-cyano-4-[(1-phenylcyclopropyl)amino]-6-quinolyl]-3-pyridyl]methanesulfonamide]	–	–	10 to 80	+++ (value is greater than 30 minutes and less than or equal to 60 minutes)	> 90	–	–	++++ (value is greater than 60 minutes)	–

— patent US11673876B2, “Substituted aminobenzyl heteroaryl compounds as EGFR and/or PI3K inhibitors” (Mekanistic Therapeutics LLC, priority 2020, dated 2023)
